Tests used:
[1] = cited from earlier work; for reduction of free fatty acids (in words): test animals, low dosage between 0.5 and 30 mg/kg body weight
ED50 in rat (Table 1) = format: in vivo
[2] = Cholesterol reduction in rats on high-fat diet; format: in vivo, female Wistar rats; details: Rattus norvegicus, read-out: Chol. Red. in %
Description: (§1) Additionally, experiments on female Wistar rats were carried out. For a period of 3 weeks the animals received a special diet with a very high fat content. Starting from the second week, half the rats were treated with a dosage of 100 and 25 mg/kg body weight. After the third week blood samples were taken 18 hours after administration of the last dose. Triglyceride and cholesterol concentrations were compared with that of the untreted animals. Cholesterol and triglycerides were determined with the aid of the Boehringer enzymatic test.

[3] = Triglyceride reduction in rats on high-fat diet; format: in vivo, female Wistar rats; details: Rattus norvegicus, high fat diet 3 weeks, blood 18 hours after last dose, read-out: Triglyc. Red. in %
Description: as §1

in vivo = details: rat
[4] = 100 mg/kg, high fat diet 3 weeks, blood 18 hours after last dose
[5] = high fat diet 3 weeks, blood 18 hours after last dose

SMILES | ED50 (ED50 in rat (Table 1)) [mg/kg] | inhibition in vivo at 100 mg/kg [2, 4] [%] | inhibition in vivo at 100 mg/kg [3] [%] | LD50 (in vivo) [mg/kg] | selectivity ratio (in vivo) | other results
CC(C)(Oc1ccc(Cl)cc1)C(=O)OCc1cccnc1 [3-pyridyl carbinol ester of clofibric acid] | – | – | – | – | – | influence on lipids (in words) ([1]; background): effective lipid- and cholesterol-lowering component
OCc1cccnc1 [3-pyridyl carbinol] | – | – | – | – | – | reduction of free fatty acids (in words) [1]: great reduction of the free fatty acids
O=C(Oc1ccc(C2CCCCC2)cc1)c1cccnc1 [Example 1, p-cyclohexylphenyl nicotinate] | 50 | 45 | 19 | 2200 | 44 | –
O=C(Oc1ccc(C23CC4CC(CC(C4)C2)C3)cc1)c1cccnc1 [Example 2, p-(1-adamantylphenyl)-nicotinate] | 68 | 28 | 47 | 3200 | 47 | –
CC(C)(Oc1ccc(Cl)cc1)C(=O)Oc1ccc(C(=O)CC23CC4CC(CC(C4)C2)C3)cc1 [Example 3, 2-(p-chlorophenoxy)-isobutyric acid-p-(1-adamantylacetyl)-phenyl ester] | – | 27 | 35 | – | – | –
Cl.O=C(Oc1ccccc1C1CCCCC1)c1cccnc1 [Example 6, o-cyclohexylphenyl nicotinate hydrochloride] | 22 | – | – | 2050 | 93 | inhibition in vivo at 25 mg/kg [2, 5]: 18%; inhibition in vivo at 25 mg/kg [3]: 16%
O=C(Oc1cccc2c1CCCC2)c1cccnc1 [Example 7, 5,6,7,8-Tetrahydro-1-naphthyl-nicotinate] | – | 22 | 18 | – | – | –
CC(C)(C)c1cc(C2CCCCC2)ccc1OC(=O)c1cccnc1 [Example 8, 2-t-butyl-4-cyclohexylphenyl nicotinate] | 30 | – | – | 1700 | 56 | inhibition in vivo at 25 mg/kg [2, 5]: 9%; inhibition in vivo at 25 mg/kg [3]: 8%
CC(C)(c1ccccc1)c1ccc(OC(=O)c2cccnc2)cc1 [Example 9, p-cumylphenyl nicotinate] | – | 24 | 1 | – | – | –
O=C(Oc1ccc(C(=O)c2ccc(Cl)cc2)cc1)c1cccnc1 [Example 10, p-chlorobenzoylphenyl nicotinate] | – | 29 | – | – | – | –
O=C(O)c1cccnc1 [Nicotinic acid, nicotinic acid, reference compound] | ~500 | – | – | 4000 | 8 | inhibition in vivo at 100 mg/kg ([2]; 18 h): 7%; influence on lipids (in words) ([1]; background): act predominantly on elevated cholesterol values and free fatty acids; side effects (in words) ([1]; background): flush, headache, nausea, vomiting; reduction of free fatty acids (in words) [1]: great reduction of the free fatty acids
CCOC(=O)C(C)(C)Oc1ccc(Cl)cc1 [clofibrate, ethyl ester of 2-(p-chlorophenoxy)-isobutyric acid, reference compound] | ~300 | – | 8 | 1500 | – | cases with cholesterol (CH) in the β- and α-lipoproteins further increased ([1]; in vivo): about 20%; fall of the initial values of triglycerides (TG) and pre-β-lipoproteins ([1]; in vivo): up to 50%

— patent publication US4412998A, “Certain 4-(1-piperidino)-phenyl-nicotinates” (Merz & Company, priority 1979, dated 1983)
